In ChEMBL document CHEMBL1139994, “Discovery of novel dialkyl substituted thiophene inhibitors of HCV by in silico screening of the NS5B RdRp” (Bioorg Med Chem Lett, 2007):
pEC50, pIC50: −log10 of the molar value.

Tests used:
Hepatitis C virus [1] = assay: Inhibition of HCV replicase complex in cell-free assay; settings: Hepacivirus hominis
Hepatitis C virus [2] = assay: Antiviral activity against HCV by replicon assay
[3] = Ratio of CC50 for Huh7 cells to EC50 for HCV; assay type: functional, Huh-7

pIC50 (Hepatitis C virus [1]) | pEC50 (Hepatitis C virus [2]) | Structure (SMILES) | Ratio CC50/EC50 [3]
< 4.00 |  | CCC1CCc2c(sc(NC(=O)CCc3ccccc3)c2C#N)C1 (stereo not given) | 
< 4.00 |  | Cc1sc(NC(=O)CCc2ccccc2)c(C(N)=O)c1C | 
< 4.00 |  | CCc1c(C)sc(NC(=O)CCc2ccccc2)c1C(=O)O | 
4.60 | 5.78 | CCc1c(C)sc(NC(=O)CCc2ccccc2)c1C#N | 3
4.52 | 5.71 | CCC1CCc2c(sc(NC(=O)CCc3ccccc3)c2C(N)=O)C1 (stereo not given) | 3
< 4.00 |  | NC(=O)c1c(NC(=O)CCc2ccccc2)sc2c1CCCC2 | 
4.30 | 6.04 | CCc1c(C)sc(NC(=O)CCc2ccccc2)c1C(N)=O | 3
< 4.00 |  | CC1CCc2c(sc(NC(=O)CCc3ccccc3)c2C(N)=O)C1 (stereo not given) | 
< 4.00 |  | CCOC(=O)c1c(NC(=O)CCc2ccccc2)sc(C)c1CC | 
